Source: patent US20220354818A1, “METHODS FOR TREATING BRAIN INJURY OR COGNITIVE DYSFUNCTION BY PHARMACOLOGICAL ENHANCMENT OF M-TYPE POTASSIUM ION CURRENTS IN NEURONS” (Advanced Neuroresearch Therapeutics LLC, priority 2019, published 2022)
“Also recorded” adds a separate entry of the source.

Experiments:
[1] = test system: neurons; assay: Fluoro Jade B staining of neuronal cell death after CCCI; format: in vivo, mouse; conditions: six days after CCCI; RTG 30 minutes post-TBI
Method: Flouro Jade B (FJB) staining was performed to assay neuronal cell death histologically and detect the degree of neurodegeneration six days after CCCI. Staining was performed as previously described.
Six days after CCCI, mice were euthanized via transcardial perfusion with PBS followed by 4% (w/v) paraformaldehyde (PFA). Brains were removed, post-fixed overnight in 4% PFA (Electron Microscopy Sciences), transferred into 30% (w/v) sucrose in PBS and kept at 4° C. for 3 days. […]
Ipsilateral cortical images (fluorescence images of FJB and counterstained DAPI) were taken by a Nikon Eclipse Ti with camera coolSNAP HQ^2 (confocal) microscope using a 20× objective (N.A. 0.75). Fluorescence excitation-emission for Fluoro Jade and DAPI were 470/40-500 and 350/50-460, respectively.
Cell count was obtained by nonbiased automatic quantification with ImageJ/FIJI (NIH, USA) particle analysis. […] After background subtraction and image threshold (1.05%), FIB positive cells were detected using the “analyze particles” (size: 20-100, circularity: 0.00-1.00) function of ImageJ. These parameters determined the pixel size and circularity of the acceptable ROIs and were used to identify cell bodies automatically.

[2] = test system: TAR DNA-binding protein 43 (TDP-43); assay: TDP-43 immunoblotting and immunohistochemistry after rbTBI (CTE marker); format: in vivo, mouse
Method: Levels of TDP-43 were first analyzed by immunoblotting experiments performed as previously described. Cortical and hippocampal samples were collected when the mice were 26-28 months of age.
Complementary to the immunoblot experiments, immunohistochemistry staining of TDP-43 was performed as previously described. Left hemisphere samples were removed and fixed overnight in 4% paraformaldehyde (Electron Microscopy Sciences). Subsequently, samples were transferred into 30% (w/v) sucrose in PBS and kept for 3 days at 4° C. before they were frozen in Tissue-Plus O.C.T. Compound (Fisher Scientific) using 2-methylbutane immersed in dry ice. Samples were stored at −80° C. until cross-sectioning.
20 μm thick coronal sections of the prefrontal cortex (PFC) were mounted on Superfrost Plus microscope slides (Fisher Scientific) previously coated with gelatin (Sigma). […] Images were taken in the PFC layer II at 40× magnification using an iXon ultra EMCCD Andor camera attached to a Nikon Eclipse TE2000-U microscope, with a fixed exposition time of 200 ms, in the 16-bit readout mode, with 2 MHz speed, and a pre-amplifier gain of 3. The mean and maximum fluorescence signal was obtained by automatic quantification with ImageJ (National Institutes of Health, USA). […]
Samples used in the immunoblotting and the immunohistochemistry experiments were from the EEG-monitored mice and from the above independent cohort. […]

[3] = test system: C57BL/6J mice subjected to three blast TBIs; assay: Repetitive blast TBI (rbTBI): post-traumatic seizures and post-traumatic epilepsy, video/EEG
Method: Adult 12-week-old male C57BL/6J mice (Jackson Labs, Bar Harbor, Me.) were group-housed with food and water ad libitum in 12:12 hour light: dark cycle. […] Experimenters were blinded to group allocation during data collection and analysis.
The shock tube (Applied Research Associates) had and inner diameter of 17 inches and a about 36-inch end opening. […] Before reaching the mice, the air blast wave passed through a 0.016-inch-thick aluminum membrane of alloy AL-2200. Pencil probe gauges (PCB Piezotronics) were placed beside the mice to monitor the pressure of the air-driven blast wave. […] During the procedure, mice were anesthetized using ketamine (25-75 mg/kg) and dexmedetomidine (0.25 mg/kg). The animals were subjected to three directed head-on blast TBI with 24 hours intervals between each injury. On the first day of blast exposure, animals were given a subcutaneous injection of buprenorphine SR (1.2 mg/kg) in the interscapular region.
Sham animals were anesthetized and placed in the shock tube but were not subjected to the rbTBI. After each blast exposure, mice were given one subcutaneous injection of atipamezole (1 mg/kg) to reverse the anesthesia and placed into a recovery chamber with controlled temperature. On the following days, mice were monitored for signs of pain and distress.
Mice from the “TBI” group were injected with the same volume of vehicle solution only.
Seizures were identified visually by the investigator's analysis of the video/EEG records. The number of seizures, latency to the first seizure, seizure duration, and percentage of mice from each group that had seizures were quantified.

CCOC(=O)Nc1ccc(NCc2ccc(F)cc2)cc1N [RTG, 2-amino-4-(4-fluorobenzylamino)-1-ethoxycarbonylaminobenzene]
Fluoro Jade B labeling of neurons (neuronal death) [1]: significantly higher FJB staining as compared to TBI+RTG cortical slices; also recorded: labeling of brain neurons by FJB was minimal
TDP-43 expression in the cerebral cortex ([2]; 2 years after TBIs, immunoblot and immunofluorescence): reduced TDP-43 as compared to the Blast cohort
phosphorylation levels of TDP-43 ([2]; cerebral cortex): Neither TBI, nor RTG treatment, changed the phosphorylation levels of TDP-43
duration of post-traumatic seizures (PTS) ([3]; rbTBI, RTG 1.2 mg/kg i.p. 30 minutes after each blast, second to fourth day after TBIs): significantly reduced duration of the PTS
mice experiencing seizures (PTE) ([3]; rbTBI, RTG 30 minutes after each TBI, first to ninth month after final rbTBI): about 20%
severity of post-traumatic seizures (EEG amplitude) ([3]; rbTBI, RTG 30 minutes after each blast): less severe
mice that developed post-traumatic epilepsy (PTE) ([3]; three blast TBIs one day apart, RTG 30 min after each, 1 month to 12 months after injury): 25%
